Test results as given in US5514703A, “Benzothiophene compounds useful for inhibiting lipoxygenase” (Eli Lilly and Company, priority 1995, dated 1996).

What was measured:
MCII cells = experiment: MCII Mast Cell Toxicity Assay (XTT); assay type: cell-based, mouse; settings: sensitized MCII cells, 4-12 hours, 37° C., read-out: MCII Mast Cell Toxicity IC50
Text: MCII Mast Cell Toxicity Assay
This toxicity assay is run in parallel with the MCII mast cell LTC4 assay and serves as an indicator of compound effects on the viability and metabolic activity of the MCII cells. This "toxicity" assay is based on the ability of dehydrogenase enzymes present in viable metabolically active cells to bioreduce the tetrazolium sale XTT yielding a colored, water soluble formazan product. (see, Roehm et al.) "An improved colorimetric assay for cell proliferation and viability utilizing the tetrazolium salt XTT. J. Immunol. Methods 142:257-65 (1991).
A duplicate polystyrene 96-well tissue culture plate (Costar) is set up with sensitized MCII cells, EM95 ascites, media and dilutions of the test compound as described above. The complete media is supplemented with concanavalin A induced culture supernatants from the mouse helper T cell clone D10.G4, as a source of mast cell growth factors.
Wells of the toxicity assay plate are pulsed with 25 μl XTT (Sigma) plus phenazine methosulfate (Aldrich) giving a final concentration of 0.2 mg/ml XTT and 25 μM phenazine methosulfate. The plates are incubated at 37° C. in 10% CO2 for 4-12 hours and then production of the XTT formazan product determined by measuring the optical density of the wells at a wavelength of 450 nm. The positive control on each plate is stimulated MCII cells with dimethyl sulfoxide vehicle alone and the negative control is the same reaction mixture without cells. The background negative control value is subtracted from experimental and positive control values and the data are reported as percent of positive control.

[1] = system: TxB2 production in plasma-depleted blood; experiment: Inhibition of Eicosanoid Production by Plasma-Depleted Blood: TxB2; assay type: cell-based; settings: Homo sapiens, read-out: Plasma DPLTD Blood TxB2 IC50
Method: Inhibition of Eicosanoid Production by Plasma-Depleted Blood
Compounds are evaluated for their ability to inhibit production of leukotriene B4 (LTB4) and thromboxane B2 (TxB2) upon stimulation of human plasma-depleted blood with formyl-methionyl-leucyl-phenylalanine (FMLP) and thrombin. LTB4 is produced by neutrophils and TxB2 by platelets stimulated at their respective receptors with FMLP and thrombin. The assay is carried out in 1 ml deep well polypropylene 96-well plates (Beckman). For the test, ten ml of blood is collected in EDTA at a final concentration of 1.5 mg/ml. Then, 40 ml glucose phosphate buffer containing 0.1% gelatin is added and the suspension centrifuged at 900 g for 10 minutes at room temperature. The supernatant is discarded and the cells washed once with 50 ml buffer before resuspending them in 50 ml Krebs-Ringers-Henseleit Buffer containing 0.1% gelatin, 1 mM CaCl2, 1.1 mM MgCl2 (KRH buffer). Working solutions of test compounds are made by dissolving the material in DMSO at 10 mM and diluting with appropriate amounts of KRH buffer. An agonist solution is made containing 1 μM FMLP (sigma) and 10 units/ml of thrombin in KRH buffer (Enzyme Research Labs). […] The amount of LTB4 and TxB2 produced is determined by the use of a competitive enzyme immunoassay using commercial reagents from Cayman Chemical.

Structure (SMILES) | CC50 (MCII cells) | IC50 [1]
Oc1ccc(-c2cc3ccc(O)cc3s2)cc1 [Compound B] | < 10 µM | 
O=C(c1ccc(O)cc1)c1c(-c2ccc(O)cc2)sc2cc(O)ccc12 [Compound D] |  | > 9.8 µM
O=C(c1ccc(-c2ccccc2)cc1)c1c(-c2ccc(O)cc2)sc2cc(O)ccc12 [Example 1, 6-hydroxyphenyl-2-(p-hydroxyphenyl)-(benzo(B)thien-3-yl)(p-phenyl)phenyl methanone] | > 10 µM | 
O=C(c1cccc2ccccc12)c1c(-c2ccc(O)cc2)sc2cc(O)ccc12 [Example 2, 6-hydroxyphenyl-2-(p-hydroxyphenyl)-(benzo(B)thien-3-yl) (α-napthyl)methanone] | > 10 µM | 
O=C(c1ccc2ccccc2c1)c1c(-c2ccc(O)cc2)sc2cc(O)ccc12 [Example 3, 6-hydroxyphenyl-2-(p-hydroxyphenyl)-(benzo(B)thien-3-yl)(β-napthyl)methanone] | > 10 µM | 
